# Source: BindingDB's records for PubMed 35324195 (Sichuan University, 2022)
# Assay: Inhibition of IL-17 in human PBMC
compound,measurement,value
COc1cc(OC)c2c(=O)[nH]c(-c3cc(C)c(OCCN4CCCC4)c(C)c3)nc2c1,IC50,1300 nM
